One assay concerns MV4-11 cells. The experiment in a line: Cell proliferation assay (CellTiter 96 AQueous One Solution). The class given is cell-based. To be noted: Homo sapiens. The method, then: Protocol for the Cell Proliferation Assays (MV-4-11 Cells).
MV-4-11 or Molm 14 cells were seeded in 96-well plates at a density of 1×10^4 cells/well and treated with various concentrations of the test compounds for 72 hours. The highest concentration was 500 nM and was serially diluted 5-fold seven times. After incubation, 20 μl/well of CellTiter 96® AQueous One Solution Reagent (Promega®) was added and the plate was incubated an additional 3 hours. The absorbance was measured at 490 nm, and cell viability was calculated by comparing to the absorbance of the vehicle-treated control group using GraphPad Prism 7.
Cell viability/survival is illustrated in FIGS. 4A, 4B and 4C, as determined by a cell proliferation assay. […] DC50, IC50, MH+, and NMR data for exemplary PROTAC-34 through PROTAC-38 and PROTAC-34-Epimer (structure shown below) is shown in Table 3 below.

A further assay addresses T1, FLT-3 (Homo sapiens, UniProt P36888, INS600HVDFREYEYD).
T1 construct: probed with antibodies specific for FLT-3 and GAPDH; endogenous in cells; host or cells: MV-4-11 cells
T1 sequence (P36888 with tags, fused parts or gaps INS600HVDFREYEYD): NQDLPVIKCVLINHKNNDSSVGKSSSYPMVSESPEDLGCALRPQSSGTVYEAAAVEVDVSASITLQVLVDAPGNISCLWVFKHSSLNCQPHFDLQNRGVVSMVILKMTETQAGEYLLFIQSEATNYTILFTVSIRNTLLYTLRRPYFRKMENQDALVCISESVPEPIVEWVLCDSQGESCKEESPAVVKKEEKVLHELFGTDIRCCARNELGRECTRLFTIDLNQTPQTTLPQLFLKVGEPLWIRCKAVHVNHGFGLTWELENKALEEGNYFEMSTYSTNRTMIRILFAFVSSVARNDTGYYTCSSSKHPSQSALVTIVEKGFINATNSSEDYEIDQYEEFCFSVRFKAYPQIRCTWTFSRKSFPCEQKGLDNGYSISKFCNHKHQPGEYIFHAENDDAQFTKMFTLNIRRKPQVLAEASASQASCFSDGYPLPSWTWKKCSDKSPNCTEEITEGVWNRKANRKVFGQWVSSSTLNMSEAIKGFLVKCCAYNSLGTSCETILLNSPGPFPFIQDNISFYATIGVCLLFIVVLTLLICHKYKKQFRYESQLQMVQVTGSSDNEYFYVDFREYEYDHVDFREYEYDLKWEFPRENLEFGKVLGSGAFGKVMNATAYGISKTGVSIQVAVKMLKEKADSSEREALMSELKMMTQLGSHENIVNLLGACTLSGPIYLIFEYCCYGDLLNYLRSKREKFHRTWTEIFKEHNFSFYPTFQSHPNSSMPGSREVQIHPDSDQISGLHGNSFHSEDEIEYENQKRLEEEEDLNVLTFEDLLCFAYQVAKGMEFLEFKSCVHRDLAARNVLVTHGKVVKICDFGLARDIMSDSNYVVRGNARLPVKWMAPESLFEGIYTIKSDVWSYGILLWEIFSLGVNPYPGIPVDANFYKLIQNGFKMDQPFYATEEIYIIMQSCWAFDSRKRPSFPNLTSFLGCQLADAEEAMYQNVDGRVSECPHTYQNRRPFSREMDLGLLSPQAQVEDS
The experiment in a line: Cellular assay of target protein degradation (MV-4-11 cells, westernblot). The class given is cell-based. To be noted: Table 3; FLT-3 degradation, result in words. The method, then:
Protocol for the Cellular Assay of Target Protein Degradation (MV-4-11 Cells, Westernblot).
MV-4-11 cells (approximately 1 million cells per well) were treated with the indicated concentrations ([…]) of compound for 24 hours. The cells were spun down and washed twice with PBS. The cells were suspended by lysis buffer (50 mM Tris (pH7.4), 150 mM NaCl, 1 mM EDTA, 0.5% NP-40, phosphatase and protease inhibitors) and incubated for an additional 30 min at 4° C. for complete lysis. After another centrifugation (13000 rpm for 15 minutes), the supernatants were kept as cell lysates. The protein concentration of the cell lysates was determined via the bicinchoninic acid (BCA) method. Equal amounts (10-20 μg) of protein samples were subjected to 8-15% SDS-PAGE. The proteins were transferred to nitrocellulose membrane and probed with antibodies specific for FLT-3 and GAPDH.

Like-named read-outs stand apart in the source and are kept apart here.

For orientation: IC50 means the concentration that gives 50% inhibition.

With `Cc1ncsc1-c1ccc(CNC(=O)[C@@H]2C[C@@H](O)CN2C(=O)[C@@H](NC(=O)CCOCCOCCOc2ccc3c(c2)sc2nc(-c4ccc(NC(=O)Nc5cc(C(C)(C)C)on5)cc4)cn23)C(C)(C)C)cc1` [PROTAC-34-Epimer], in the assay on MV4-11 cells (MV4-11, Table 3, MV4-11, read-out: IC50 [cell line]), the IC50 came out at 2.27 nM. In addition, at FLT-3, the Degradation observed result is recorded as “No degradation”.

For `Cc1ncsc1-c1ccc(CNC(=O)[C@@H]2C[C@@H](O)CN2C(=O)[C@@H](NC(=O)CCOCCCCOc2ccc3c(c2)sc2nc(-c4ccc(NC(=O)Nc5cc(C(C)(C)C)on5)cc4)cn23)C(C)(C)C)cc1` [PROTAC-37], the Degradation observed result on FLT-3 is “No degradation”.

For the molecule `CC(C)(C)c1cc(NC(=O)Nc2ccc(-c3cn4c(n3)sc3cc(OCCN5CCOCC5)ccc34)cc2)no1` [Quizartinib], the IC50 was found to be 2.34 nM in the assay on MV4-11 cells (MV4-11, 72 h, Table 1, MV4-11 cells, 72 hours, cell viability, read-out: IC50 (nM) MV4-11) and 1.75 nM in the assay with MV4-11 cells (MV4-11, 72 h, Table 2, MV4-11 cells, 72 hours, cell viability, read-out: IC50 (nM) MV4-11).

The record behind these values is patent US10806737B2, “Compounds and methods for the targeted degradation of fetal liver kinase polypeptides” (Arvinas Operations, Inc., priority 2016, dated 2020).
